Laboratory results as given in patent US7786071B2 (priority 2003, dated 2010).
“And” between values parts separate entries of the source, which are not always exact repeats. Equal entries are not always repeated.

Assays:
[1] = molecular target: T1, HuPON1 purified from serum (Homo sapiens, UniProt P27169); conditions: read-out: Ki for 2-hydroxyquinoline inhibition of phenyl acetate hydrolysis by HuPON1 purified from serum; cited from earlier work
T1 construct: measured for hydrolysis of phenylacetate by serum huPON1; host or cells: human serum
T1 sequence (P27169 whole entry): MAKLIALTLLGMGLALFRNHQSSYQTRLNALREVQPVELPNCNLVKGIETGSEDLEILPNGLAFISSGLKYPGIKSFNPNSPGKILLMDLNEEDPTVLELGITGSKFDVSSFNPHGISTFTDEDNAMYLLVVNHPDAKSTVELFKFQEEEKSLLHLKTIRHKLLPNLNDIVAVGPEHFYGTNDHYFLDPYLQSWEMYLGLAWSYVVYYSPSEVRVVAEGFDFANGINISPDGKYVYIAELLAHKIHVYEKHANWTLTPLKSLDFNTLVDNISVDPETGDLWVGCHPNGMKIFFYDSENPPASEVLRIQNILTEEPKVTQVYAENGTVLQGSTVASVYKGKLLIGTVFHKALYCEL

rePON1 (G3H8) = molecular target: T2, rePON1 (G3H8) (Oryctolagus cuniculus, UniProt P27170, A301G/A320V/A67S/G19R/H177S/I126T/I187A/K138S/K151R/K297E/K93E/L143V/L7P/M130L/M341L/P82S/S101G/V343I); test: biochemical
T2 construct: leaving the intact, 355 amino acids, PON1 protein without any additions; made in house; host or cells: E. coli Origami B (DE3), truncated pET32 vector without Trx, His and S tags
T2 sequence (P27170 with tags, fused parts or gaps with the stated changes): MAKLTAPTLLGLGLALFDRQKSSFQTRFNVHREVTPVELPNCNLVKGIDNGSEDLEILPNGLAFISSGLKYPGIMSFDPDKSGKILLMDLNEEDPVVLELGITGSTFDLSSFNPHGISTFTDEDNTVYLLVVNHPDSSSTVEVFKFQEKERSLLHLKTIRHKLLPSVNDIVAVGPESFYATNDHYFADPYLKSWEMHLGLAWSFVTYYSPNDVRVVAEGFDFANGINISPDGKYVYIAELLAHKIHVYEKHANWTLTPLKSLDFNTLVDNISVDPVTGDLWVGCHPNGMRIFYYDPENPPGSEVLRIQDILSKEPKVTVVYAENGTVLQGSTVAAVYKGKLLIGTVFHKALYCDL

Q: With `Oc1ccc2ccccc2n1` [2-hydroxyquinoline] as the compound, how does the Ki [1] read?
A: The Ki was roughly 5 µM.

Q: And the Ki (rePON1 (G3H8); Inhibition constant (Ki))?
A: Its Ki is 11 µM and 3 µM and 4.2 µM.

Q: What about the Ki (rePON1 (G3H8); inhibition constants for phenyl-acetate, paraxon and L-HcyT hydrolysis) of the same compound?
A: Its Ki is 3 to 11 µM.
